In patent US20240350441A1, “PHARMACEUTICAL FORMULATION AND A PROCESS FOR ITS PREPARATION” (SAVA HEALTHCARE LTD, priority 2021, published 2024):

Assays:
Type in all cases: in vivo, Female Swiss Albino mice
[1] = test system: Cyclophosphamide induced hepatotoxicity; assay: Cyclophosphamide induced hepatotoxicity, AST/ALT (Example 9)
Description: (§1) Female Swiss Albino mice were randomized into different groups based on body weight as follows: • Group 1—cyclophosphamide control (CP control), • Group 2—pure Picroside 1 treated, • Group 3—the degraded Picroside 1 with salt and • Group 4—GCSF (granulocyte colony stimulating factor) treated groups. • On day 0, blood was withdrawn from all animals for basal hematological parameters. The animals of all the groups were injected with 150 mg/kg of cyclophosphamide through intraperitoneal route (i.p.). On Day 3, blood was withdrawn from all animals for total and differential count (neutrophils, lymphocytes, and monocytes). The animals were dosed with one additional dose of 100 mg/kg cyclophosphamide on Day 4. From day 5, the animals were administered with respective treatments through oral route in water as vehicle while group 1 was administered with placebo tablets for 5 consecutive days. On day 10, blood was withdrawn from all animals for Total and differential count (neutrophils, lymphocytes, and monocytes), WBCs, Platelets and AST (aspartate aminotransferase) and ALT (alanine aminotransferase).

[2] = test system: Cyclophosphamide induced neutropenia; assay: Cyclophosphamide induced neutropenia, hematological changes (Example 9)
Description: • 1. To induce neutropenia in mice by administration of cyclophosphamide. • 2. To determine the effect of treatments of pure Picroside 1 and the degraded Picroside 1 with salt on total WBC count, neutrophils, monocyte, lymphocytes and platelet count. • 3. To compare the effect of pure Picroside 1 and the degraded Picroside 1 with salt standard 2 μg G-CSF.
Cyclophosphamide was procured from Sigma Aldrich and G-CSF was procured from marketed formulation of Lupin limited, Lupifil (300). Female Swiss Albino mice weighing between 25-27 g were procured from National Institute of Biosciences, Pune.
as §1

[3] = test system: Cyclophosphamide induced hepatotoxicity and renal changes; assay: Hepatic and renal parameters in cyclophosphamide induced neutropenia (Example 10)
Description: (§2) • 1. To induce neutropenia by administration of cyclophosphamide. • 2.
(§3) Materials: Female Swiss Albino mice weighing between 25-27 g was procured from Global Bioresearch Solutions Pvt Ltd., Pune.
(§4) On day 0, blood was withdrawn from all animals for basal hematological parameters. All the groups of animals except placebo group were injected with 150 mg/kg of cyclophosphamide through intraperitoneal route (i.p.), while group 1 was injected with water for injection, i.p. On Day 3, blood was withdrawn from all animals for Total and differential count (neutrophils, lymphocytes, and monocytes). The animals of group 2 to 7 were dosed with one additional dose of 100 mg/kg cyclophosphamide on Day 4. […] The cyclophosphamide control group was injected with water for injection from day 5 to day 9. On day 10, blood was withdrawn from all animals for total and differential count (neutrophils, lymphocytes, and monocytes), platelets, liver parameters AST (aspartate aminotransferase), ALT (alanine aminotransferase), and renal parameters—serum creatinine, blood urea nitrogen and uric acid.
(§5) • Pure Picroside 1—1 tablet was dissolved in 0.1 ml of sterile water for injection and 0.1 ml was injected as subcutaneous injection. • The degraded Picroside 1 without salt (cinnamic acid of the present disclosure)—1 tablet was dissolved in 0.1 ml of sterile water for injection and 0.1 ml was injected as subcutaneous injection. • The Cinnamic acid low dose (0.6 mg/tablet) treated tablet was dissolved in 0.1 ml of sterile water for injection and 0.1 ml was injected as subcutaneous injection. • The Cinnamic acid high dose treated (6 mg/tablet) tablet was dissolved in 0.1 ml of sterile water for injection and 0.1 ml was injected as subcutaneous injection.

[4] = test system: Cyclophosphamide induced neutropenia; assay: Cyclophosphamide induced neutropenia, hematological parameters (Example 10)
Description: as §2, §3, §4, §5

[5] = compared to cyclophosphamide control group, Example 9
[6] = day 10, after 5 days treatment from day 5, GCSF 2 μg
[7] = Day 0, basal, before cyclophosphamide
[8] = Day 3, after cyclophosphamide 150 mg/kg i.p., before treatment
[9] = Day 10, after 5 days treatment from day 5, GCSF 2 μg
[10] = day 10, G-CSF 2 μg s.c., others 1 tablet per animal per day for 5 days
[11] = Day 0, basal, G-CSF 2 μg, Picroside tablets groups
[12] = Day 3, after cyclophosphamide, before treatment, G-CSF 2 μg, Picroside tablets groups
[13] = Day 10, treated day 5 for 5 days, G-CSF 2 μg s.c., others 1 tablet per animal per day

## O=C(/C=C/c1ccccc1)OC[C@H]1O[C@@H](O[C@@H]2OC=C[C@H]3[C@H](O)[C@@H]4O[C@]4(CO)[C@@H]23)[C@H](O)[C@@H](O)[C@@H]1O [Pure Picroside 1, Picroside 1]
[1]; [5]
  Effect on ALT: significant reversal (p<0.001)
  Effect on AST: significant (p<0.001) decrease in AST
[1]; [6]
  ALT (alanine aminotransferase): 37.32 ± 0.66 IU/L
  AST (aspartate aminotransferase): 43.66 ± 2.68 IU/L
[2]; [7]
  % Lymphocytes: 40.32 ± 1.56%
  % Monocytes: 7.32 ± 0.32^ %
  % Neutrophils: 43 ± 0.68%
  Platelet Count: 741600 ± 3476 per cu · mm of blood
  WBC Count: 7410 ± 414.90 per cu · mm of blood
[2]; [8]
  % Lymphocytes: 80.00 ± 1.92%
  % Monocytes: 1.50 ± 0.34^ %
  % Neutrophils: 7 ± 0.92%
  Platelet Count: 647900 ± 26900 per cu · mm of blood
  WBC Count: 1562 ± 145.90 per cu · mm of blood
[2]; [9]
  % Lymphocytes: 72.00 ± 1.46 %
  % Monocytes: 4.50 ± 0.34 %
  % Neutrophils: 12.66 ± 0.66 %
  Platelet Count: 653300 ± 26550 per cu · mm of blood
  WBC Count: 4380 ± 333.30 per cu · mm of blood
[2]; [5]
  Effect on % lymphocytes: significant (p<0.01) reduction in % lymphocytes
  Effect on % monocytes: significantly reversed
  Effect on platelet count: improved the platelet count significantly (p<0.001)
  Effect on total WBC count: significantly (p<0.001) reversed the cyclophosphamide induced decrease in WBC count
[2]; compared to cyclophosphamide/placebo control group, Example 9
  Effect on % neutrophil: significantly (p<0.01) alleviated the cyclophosphamide-induced neutropenia
[3]; [10]
  BUN (blood urea nitrogen): 9.483 mmol/L
  SGOT Serum glutamic oxaloacetic transaminase: 25.67 IU/L
  SGPT (Serum glutamic pyruvic transaminase): 28.5 IU/L
  Serum Creatinine: 46.8 µM
  Uric acid: 30.00 mg/L
[3]; inference from table 8B, as compared to GCSF
  Hepatic and renal parameters in neutropenic animal model: improved hepatic and renal parameters
[4]; [11]
  % Lymphocytes: 44.33%
  % Monocytes: 6.00%
  % Neutrophils: 41.00%
  No of Platelets: 735700 per cu · mm of blood
  Total WBC Count: 7301 per cu · mm of blood
[4]; [12]
  % Lymphocytes: 84%
  % Monocytes: 1.50%
  % Neutrophils: 6.50%
  No of Platelets: 631700 per cu · mm of blood
  Total WBC Count: 2365 per cu · mm of blood
[4]; [13]
  % Lymphocytes: 58.67%
  % Monocytes: 5.00%
  % Neutrophils: 28.33%
  No of Platelets: 626800 per cu · mm of blood
  Total WBC Count: 3674 per cu · mm of blood
[4]; inference from table 8A
  Anti-neutropenic activity (words): shows better anti-neutropenic activity
